From patent publication US9796753B2, “N-substituted indenoisoquinolines and syntheses thereof” (Purdue Research Foundation, priority 2005, dated 2017)
Like-named read-outs stand apart in the source and are kept apart here. Blank lines part the entries; values can stand above or below the molecule they belong to.

Columns and labels:
[1] = tested on: all human cancer cell lines successfully tested; assay: NCI screen mean graph midpoint (MGM) for growth inhibition; assay type: cell-based; conditions: Table 1; average GI50 of all cell lines tested (approximately 55), test range 10^−8 to 10^−4 molar
In short: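 NCI60 panel cells exposed to compound at 100, 10, 1, 0.1 and 0.01 μM for 48 h, then sulforhodamine B staining. Percentage growth versus control plotted against log concentration; MGM is the midpoint across all lines tested.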

[2] = tested on: lung HOP-62; assay: COMPARE screening (NCI human cancer cell line screen), cytotoxicity GI50; assay type: cell-based; conditions: Homo sapiens, HOP-62, read-out: cytotoxicity (GI50) lung HOP-62
In short: (§1)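 Read-out is sulforhodamine B optical density, expressed as a ratio to untreated control and plotted as percentage growth against log10 compound concentration. Exposure lasted 48 h at five concentrations from 100 to 0.01 μM in the NCI60 screen.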

[3] = tested on: ovarian OVCAR-3; assay: as above; assay type: cell-based; conditions: Homo sapiens, OVCAR-3, read-out: cytotoxicity (GI50) ovarian OVCAR-3
In short: as §1

[4] = tested on: melanoma UACC-62; assay: as above; assay type: cell-based; conditions: Homo sapiens, UACC-62, read-out: cytotoxicity (GI50) melanoma UACC-62
In short: as §1

[5] = tested on: CNS SF-539; assay: as above; assay type: cell-based; conditions: Homo sapiens, CNSSF-539, read-out: cytotoxicity (GI50) CNS SF-539
In short: as §1

[6] = tested on: prostate DU-145; assay: as above; assay type: cell-based; conditions: Homo sapiens, DU-145, read-out: cytotoxicity (GI50) prostate DU-145
In short: as §1

[7] = tested on: renal SN12C; assay: as above; assay type: cell-based; conditions: Homo sapiens, SN12C, read-out: cytotoxicity (GI50) renal SN12C
In short: as §1

[8] = tested on: breast MDA-MB-435; assay: as above; assay type: cell-based; conditions: Homo sapiens, MDA-MB-435, read-out: cytotoxicity (GI50) breast MDA-MB-435
[9] = biological target: T1, Human recombinant Top1 (Homo sapiens, UniProt P11387); assay: Topoisomerase 1-mediated DNA cleavage reactions (B), 117-bp DNA oligonucleotide; assay type: biochemical; design: key to Top1 inhibitory activity (level): 0, no detectable activity; +, weak activity; ++, similar activity to compound 33; +++, greater activity than 33; ++++, equipotent to 32; Ambiguous scores (e.g., between two values) are designated with parentheses (e.g., ++(+) would be between ++ and +++); key to Top1 (compound-induced DNA cleavage due to Top1 inhibition): 0, no detectable activity; +, weak activity; ++, similar activity to compound 5; +++, greater activity than 34; ++++ , equipotent to 32; The (+) ranking indicates the activity lies between two given values; conditions: Table 5; for Top1 inhibitory activity (level): relative to compounds 32 and 33; for Top1 (compound-induced DNA cleavage due to Top1 inhibition): semiquantitative scale relative to 1 μM camptothecin (32) or MJ-III-65 (34)
T1 construct: made in house
T1 sequence (P11387 1-765): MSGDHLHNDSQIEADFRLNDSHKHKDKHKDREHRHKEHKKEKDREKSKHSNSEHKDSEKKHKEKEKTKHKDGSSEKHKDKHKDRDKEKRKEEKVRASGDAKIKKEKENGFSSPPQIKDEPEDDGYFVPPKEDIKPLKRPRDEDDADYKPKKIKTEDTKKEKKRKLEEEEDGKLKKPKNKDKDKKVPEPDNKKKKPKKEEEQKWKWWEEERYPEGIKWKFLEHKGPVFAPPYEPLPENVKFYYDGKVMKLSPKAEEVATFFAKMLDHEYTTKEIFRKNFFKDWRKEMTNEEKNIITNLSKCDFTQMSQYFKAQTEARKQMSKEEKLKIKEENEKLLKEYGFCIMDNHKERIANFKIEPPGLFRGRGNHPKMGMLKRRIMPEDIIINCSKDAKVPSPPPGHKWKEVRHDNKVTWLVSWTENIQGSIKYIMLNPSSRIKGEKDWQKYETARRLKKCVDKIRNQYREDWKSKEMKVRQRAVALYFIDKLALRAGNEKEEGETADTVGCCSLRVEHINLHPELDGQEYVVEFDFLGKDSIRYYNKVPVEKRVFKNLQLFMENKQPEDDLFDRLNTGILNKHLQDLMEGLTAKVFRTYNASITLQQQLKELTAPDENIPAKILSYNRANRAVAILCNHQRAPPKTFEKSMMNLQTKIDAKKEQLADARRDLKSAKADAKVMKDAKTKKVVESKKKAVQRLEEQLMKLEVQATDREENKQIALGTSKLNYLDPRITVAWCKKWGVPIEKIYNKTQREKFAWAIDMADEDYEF
Description: Human recombinant Top1 was purified from baculovirus as described in Bailly, C. Curr. Med. Chem. 2000, 7, 39-58. DNA cleavage reactions were prepared as previously reported with the exception of the DNA substrate in Saltz, et al. Oncologist 1997, 2, 402-409.
Approximately 2 nM radiolabeled DNA substrate was incubated with recombinant Top1 in 20 μL of reaction buffer [10 mM Tris-HCl (pH 7.5), 50 mM KCl, 5 mM MgCl2, 0.1 mM EDTA, and 15 μg/mL BSA] at 25° C. for 20 min in the presence of various concentrations of compounds. […] Aliquots of each reaction mixture were subjected to 20% denaturing PAGE. Gels were dried and visualized using a phosphoimager and ImageQuant software (Molecular Dynamics).
All of the new indenoisoquinoline derivatives with C-2 side chains were tested in Top1-mediated DNA cleavage assays. For this purpose, a ^32P 3′-end labeled 117-bp DNA fragment was incubated with Top1 and four 10-fold dilutions starting from 100 μM of a tested compound. The DNA fragments were separated on 20% PAGE denaturing gels. The Top1 inhibitory activities were assigned on the basis of the visual inspection of the number and intensities of the gel bands corresponding to Top1-mediated DNA cleavage fragments. […] Ambiguous scores (e.g., between two values) are designated with parentheses (e.g., ++(+) would be between ++ and +++).

[10] = biological target: recombinant TDP1 (Homo sapiens, UniProt Q9NUW8); assay: Gel-based assay measuring the inhibition of recombinant TDP1; assay type: biochemical; conditions: for IC50: Table 5, determined in duplicate
Sequence of recombinant TDP1 (Q9NUW8 whole entry): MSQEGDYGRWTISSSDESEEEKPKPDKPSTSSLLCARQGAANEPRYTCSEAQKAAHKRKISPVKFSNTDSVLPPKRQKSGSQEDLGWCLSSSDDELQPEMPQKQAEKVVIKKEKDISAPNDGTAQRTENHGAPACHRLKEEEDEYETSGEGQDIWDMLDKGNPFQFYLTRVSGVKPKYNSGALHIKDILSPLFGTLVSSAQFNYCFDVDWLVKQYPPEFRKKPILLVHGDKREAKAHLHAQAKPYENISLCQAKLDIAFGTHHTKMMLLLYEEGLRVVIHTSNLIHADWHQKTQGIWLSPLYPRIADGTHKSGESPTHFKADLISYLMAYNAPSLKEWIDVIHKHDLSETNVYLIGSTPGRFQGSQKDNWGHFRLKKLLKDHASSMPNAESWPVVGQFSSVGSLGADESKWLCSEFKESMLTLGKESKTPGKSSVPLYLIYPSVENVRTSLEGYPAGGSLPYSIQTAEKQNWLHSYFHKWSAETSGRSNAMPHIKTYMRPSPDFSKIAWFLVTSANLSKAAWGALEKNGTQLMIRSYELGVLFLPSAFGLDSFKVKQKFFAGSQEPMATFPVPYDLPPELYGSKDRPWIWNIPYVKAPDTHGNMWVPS
Description: A 5′-[^32P]-labeled single-stranded DNA oligonucleotide containing a 3′-phosphotyrosine (N14Y) was generated as described by Dexheimer et al. (J. Med. Chem. 2009, 52, 7122-7131). The DNA substrate was then incubated with 5 μM recombinant TDP1 in the absence or presence of inhibitor for 15 min at room temperature in a buffer containing 50 mM Tris HCl, pH 7.5, 80 mM KCl, 2 mM EDTA, 1 mM DTT, 40 μg/ml BSA and 0.01% Tween-20. Reactions were terminated by the addition of 1 volume of gel loading buffer [99.5% (v/v) formamide, 5 mM EDTA, 0.01% (w/v) xylene cyanol, and 0.01% (w/v) bromophenol blue]. Samples were subjected to a 16% denaturing PAGE and gels were exposed after drying to a PhosphorImager screen (GE Healthcare). Gel images were scanned using a Typhoon 8600 (GE Healthcare) and densitometric analyses were performed using the ImageQuant software (GE Healthcare).
The TDP1 inhibitory activities of the O-2-substituted indenoisoquinolines were measured by determining their abilities to inhibit the hydrolysis of the phosphodiester linkage between tyrosine and the 3′-end of a DNA oligonucleotide substrate and thus prevent the generation of an oligonucleotide with a free 3′-phosphate (N14P, Scheme 13). Therefore, the disappearance of the gel band for N14P indicates TDP1 inhibition.
Tyrosyl-DNA phosphodiesterase 1 (TDP1) is a DNA repair enzyme that repairs cytotoxic DNA damage induced by Top1 inhibitors.

[11] = tested on: colon HCT-116; assay: COMPARE screening (NCI human cancer cell line screen), cytotoxicity GI50; assay type: cell-based; conditions: Homo sapiens, HCT-116, read-out: cytotoxicity (GI50) colon HCT-116
In short: as §1

[12] = read-out: TDP1 (IC50, semiquantitative scale)
[13] = read-out: TDP1 inhibitory activity (potency score)

SMILES: Cl.NCCCCCCCCCCCCn1c2c(c3ccccc3c1=O)C(=O)c1ccccc1-2 [Compound 5av, 6-(12-Aminododecyl)-5,6-dihydro-5,11-dioxo-11H-indeno[1,2-c]isoquinoline Hydrochloride]
MGM (mean GI50 across cell lines) [1]: 18.2 µM
GI50 [2]: 17 µM
GI50 [3]: 17.8 µM
GI50 [4]: 14.8 µM
GI50 [5]: 18.2 µM
GI50 [6]: 19.1 µM
GI50 [7]: 13.5 µM
GI50 [8]: 19.5 µM
melting point: 175 to 178 °C

SMILES: Cl.NCCCCCCCCCn1c2c(c3ccccc3c1=O)C(=O)c1ccccc1-2 [Compound 5as, 6-(9-Aminononyl)-5,6-dihydro-5,11-dioxo-11H-indeno[1,2-c]isoquinoline Hydrochloride]
MGM (mean GI50 across cell lines) [1]: 8.13 µM
GI50 [2]: 6.76 µM
GI50 [3]: 9.55 µM
GI50 [4]: 9.33 µM
GI50 [5]: 9.77 µM
GI50 [6]: 6.03 µM
GI50 [7]: 8.51 µM
GI50 [11]: 6.46 µM
GI50 [8]: 9.55 µM
melting point: 204 to 207 °C

SMILES: COC1C=c2c3c([nH]c(=O)c2=CC1(CCCN1CCOCC1)OC)-c1cc2c(cc1C3=O)OCO2 (stereo not drawn) [Compound 5q, 3-[(Morpholin-4-yl)-1-propyl]-5,6-dihydro-2,3-dimethoxy-8,9-methylenedioxy-5,11-dioxo-11H-indeno[1,2-c]isoquinoline]
melting point: 290 to 292 °C

SMILES: COC1C=c2c3c([nH]c(=O)c2=CC1(CCCN1CCSCC1)OC)-c1cc2c(cc1C3=O)OCO2 (stereo not drawn) [Compound 5r, 3-[(Thiomorpholin-4-yl)-1-propyl]-5,6-dihydro-2,3-dimethoxy-8,9-methylenedioxy-5,11-dioxo-11H-indeno[1,2-c]isoquinoline]
melting point: 306 to 308 °C

SMILES: Cl.NCCCCCCCCCCCn1c2c(c3ccccc3c1=O)C(=O)c1ccccc1-2 [Compound 5au, 6-(11-Aminoundecyl)-5,6-dihydro-5,11-dioxo-11H-indeno[1,2-c]isoquinoline Hydrochloride]
MGM (mean GI50 across cell lines) [1]: 5.13 µM
GI50 [2]: 2.19 µM
GI50 [3]: 2.09 µM
GI50 [4]: 1.7 µM
GI50 [5]: 2.04 µM
GI50 [6]: 4.57 µM
GI50 [7]: 2 µM
GI50 [11]: 1.91 µM
GI50 [8]: 11 µM
melting point: 125 to 129 °C

The next lines start with the values.

melting point: 215 to 217 °C
SMILES: COc1cc2c3c(n(CCCNCCC4COCCN4)c(=O)c2cc1OC)-c1cc2c(cc1C3=O)OCO2 (stereo not drawn) [Compound 5x, 6-[(3-Morpholylethylamino)-1-propyl]-5,6-dihydro-2,3-dimethoxy-8,9-methylenedioxy-5,11-dioxo-11H-indeno[1,2-c]isoquinoline]

Top1 inhibitory activity (level) [9]: +++
Top1 (compound-induced DNA cleavage due to Top1 inhibition) [9]: +++
IC50 [10, 12]: 12 to 37 µM
IC50 [10, 13]: 12 to 37 µM
SMILES: COc1cc2c(=O)n(CCCN3CCOCC3)c3c(c2cc1OCCCN(C)C)C(=O)c1cc2c(cc1-3)OCO2 [Compound 23, 2-(3-(Dimethylamino)propoxy)-3-methoxy-6-(3-morpholinopropyl)-5H-[1,3]dioxolo[4′,5′:5,6]indeno[1,2-c]isoquinoline-5,12(6H)-dione]

Top1 inhibitory activity (level) [9]: +++
Top1 (compound-induced DNA cleavage due to Top1 inhibition) [9]: +++
IC50 [10, 12]: 12 to 37 µM
IC50 [10, 13]: 12 to 37 µM
SMILES: CCNCCCOc1cc2c3c(n(CCCN4CCOCC4)c(=O)c2cc1OC)-c1cc2c(cc1C3=O)OCO2 [Compound 24, 2-(3-(Ethylamino)propoxy)-3-methoxy-6-(3-morpholinopropyl)-5H-[1,3]dioxolo [4′,5′:5,6]indeno[1,2-c]isoquinoline-5,12(6H)-dione]

Top1 inhibitory activity (level) [9]: + or ++
Top1 (compound-induced DNA cleavage due to Top1 inhibition) [9]: +
IC50 [10, 12]: > 111 µM
SMILES: COc1cc2c(=O)n(CCCN3CCOCC3)c3c(c2cc1OCC(=O)NN)C(O)c1cc2c(cc1-3)OCO2 (stereo not drawn) [Compound 31, 2-((12-Hydroxy-3-methoxy-6-(3-morpholinopropyl)-5-oxo-6,12-dihydro-5H-[1,3]dioxolo[4′,5′:5,6]indeno[1,2-c]isoquinolin-2-yl)oxy)acetohydrazide]

Top1 inhibitory activity (level) [9]: +++
Top1 (compound-induced DNA cleavage due to Top1 inhibition) [9]: +++
TDP1 inhibitory activity (in words) [10]: no TDP1 inhibitory activity was observed
IC50 [10, 12]: > 111 µM
SMILES: COc1cc2c(=O)n(CCCN3CCOCC3)c3c(c2cc1OCCCN1CCN(C)CC1)C(=O)c1cc2c(cc1-3)OCO2 [Compound 26, 3-Methoxy-2-(3-(4-methylpiperazin-1-yl)propoxy)-6-(3-morpholinopropyl)-5H-[1,3]dioxolo[4′,5′:5,6]indeno[1,2-c]isoquinoline-5,12(6H)-dione]

melting point: 197 to 199 °C
SMILES: COc1cc2c(=O)n(CCCN3CCOCC3)c3c(c2cc1OCCCBr)C(=O)c1cc2c(cc1-3)OCO2 [Compound 19, 2-(3-Bromopropoxy)-3-methoxy-6-(3-morpholinopropyl)-5H-[1,3]dioxolo[4′,5′: 5,6]indeno[1,2-c]isoquinoline-5,12(6H)-dione]
